# Test results published in the METLIN SMRT retention time set (Domingo-Almenara et al. 2019).
# Assay: gradient 5% acetonitrile 3 min, to 50% in 2 min, to 85% in 15 min, held 3 min, 100 µL/min
# Conditions: column: Zorbax Extend-C18 2.1 x 50 mm; eluents: water / acetonitrile, 0.1% formic acid
# Method in brief: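 Retention times come from adduct peaks that were picked computationally and then checked by hand. The standards, pure and pooled in mixtures of ~100 molecules, were run on a Zorbax Extend-C18 column (2.1 × 50 mm, 1.8 μm) at 100 μL/min with water and acetonitrile, each with 0.1% formic acid. Detection was by quadrupole time-of-flight mass spectrometry in positive and negative ionization mode, with a dead volume of 40 μL and a dwell volume of 900 μL.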
row,Structure (SMILES),RP-LC retention time
1,O=C(Cn1nc2n(c1=O)CCCC2)N1CCN(c2ccccc2)CC1,638 s
2,Cc1nn(-c2ccc(N3CCCCC3)nn2)c(C)c1CCC(=O)NCCCc1ccco1,665 s
3,COC(=O)c1c(NC(=O)CN2C(=O)CCC2=O)sc(Cc2ccc3c(c2)OCO3)c1C,864 s
4,O=C(CN1CCN(C(=O)Nc2ccc(Cl)cc2)CC1=O)N1CCN(c2ccc(F)cc2)CC1,766 s
5,Cc1ccsc1C(=O)Nc1cccn2nc(C(C)C)nc12,986 s
6,COc1ccc(N2CCN(CC(O)c3cccc(OC)c3)CC2)cc1 (stereo not drawn),657 s
7,CC(C)NC[C@@H](C(=O)N1CCN(c2ncnc3c2[C@H](C)C[C@H]3O)CC1)c1ccc(Cl)cc1,610 s
8,COc1ccc(C2(CNC(=O)C(=O)Nc3ccccc3Cl)CCCC2)cc1,1300 s
9,CCOc1ccc(-n2ccn3c(CCCC(=O)N4CCN(c5ccccn5)CC4)nnc3c2=O)cc1,606 s
10,O=C(NCC(=O)N1CCOCC1)c1c[nH]c2ccccc12,593 s
11,CN(Cc1nc2cc(C(=O)N3CCCC3)ccc2n1C)C(=O)Nc1ccc2c(c1)OCCO2,688 s
12,Cc1ccc(-c2cn3c(CC(=O)Nc4ccc(Cl)cc4)csc3n2)cc1C,940 s
13,Fc1cc(F)cc(-c2nnc(Cc3nc(-c4ccncc4)no3)o2)c1,780 s
14,O=C(NCc1cccs1)C1CCN(CCc2c[nH]c3ncccc23)CC1,563 s
15,COc1ccc(OC)c(NS(=O)(=O)c2cc(-c3nc(C)cs3)n(CC(=O)N3CCCC3)c2)c1,903 s
16,CC(C)CCNC(=O)C1(C)Cn2nc(C(=O)NCc3ccccc3F)cc2C(=O)N1C (stereo not drawn),763 s
17,COC(=O)c1c(C)[nH]c(C(=O)N2CCC(CC(=O)NCc3ccc(OC)cc3)CC2)c1C,715 s
18,COCCNC(=O)c1csc(N2CCN(c3ccc(F)cc3)CC2)n1,869 s
19,O=C(NC1CC1)C1CCN(C(=O)c2ncn3c2COC(c2ccc(Cl)cc2)C3)CC1 (stereo not drawn),713 s
20,Cc1sc(NC(=O)CCCC(=O)O)nc1-c1ccccc1,752 s
21,Cc1noc([C@@H]2CN(C(=O)c3ccc(Cc4c(C)noc4C)o3)C[C@H]2C(N)=O)n1,631 s
22,CCCN(Cc1ccc(OC)c(OC)c1)Cc1cc(=O)n2ccccc2n1,592 s
23,O=C(NCC(c1cccnc1)N1CCc2ccccc21)C(=O)Nc1ccccc1[N+](=O)[O-] (stereo not drawn),702 s
24,CCc1ccc(OCCS(=O)(=O)Nc2cc(NC(C)=O)ccc2OC)cc1,808 s

row,Structure (SMILES),RP-LC retention time
1,COc1cccc(NC(=O)Nc2c(-c3ccc(F)cc3)nc3ccccn23)c1,677 s
2,Cc1nnc2c(NC(=O)c3cnccn3)cccn12,600 s
3,CC(C)NC(=O)c1ccc(OCC2CCN(C(=O)Cc3cccs3)CC2)cc1,822 s
4,COCCn1cc2c3c(cccc31)CN(C(=O)NCc1ccc(F)cc1)CC2,842 s
5,COCCNC(=O)CN1C(=O)C2CCCCN2c2ccc(C(=O)N3CCCCC3)cc21 (stereo not drawn),696 s
6,CO[C@H]1CN(C(C)C)[C@H]1C1CCN(C(=O)C(C)C)CC1,557 s
7,O=C(c1ccc(Br)cc1)N1CCN(c2cc(-c3ccc(Cl)cc3)[nH]n2)CC1,945 s
8,O[C@@H]1CCCC[C@H]1N1CCC(c2ccccc2)CC1,661 s
9,CN1CCN(C(=O)c2cc(-c3cccs3)n(CC(=O)NCc3ccco3)n2)CC1,572 s
10,Cn1nccc1C(=O)N1CCC(Cc2nc(C3CC3)n[nH]2)C1 (stereo not drawn),578 s
11,CCOc1ccc(-c2nc(COc3cc(C(F)(F)F)c4c(C)nn(C)c4n3)c(C)o2)cc1OC,1330 s
12,Oc1ccc(Nc2ccnc3cc(Cl)ccc23)cc1,665 s
13,CCS(=O)(=O)N1CC(=O)N(c2cc(C)cc(C)c2)C(C)(C(=O)NCc2ccc(F)cc2)C1 (stereo not drawn),892 s
14,Cc1cc(C)n(Cc2nc(-c3ccc(NC(=O)c4ccc(C#N)cc4)cc3)oc2C)n1,870 s
15,Cc1ccc(-c2ccc3nn(CC(=O)NC4CCCCC4)c(=O)n3n2)cc1C,792 s
16,O=C(Cn1cnc2nc(N3CCCC(C(=O)NC4CC4)C3)sc2c1=O)NCCC1=CCCCC1 (stereo not drawn),722 s
17,Cc1oc(-c2[nH]ncc2C(=O)N(C)C)cc1S(=O)(=O)Nc1cccc(C(F)(F)F)c1,763 s
18,Cc1cc(C)n2nc(CN(C(=O)c3cccs3)c3ccc(F)cc3)nc2n1,779 s
19,CCN1C(=O)c2c(C(=O)NCc3ccc(F)cc3)ncn2CC1(C)C(=O)NC1CCCC1 (stereo not drawn),764 s
20,CCc1noc([C@@H]2CC(F)(F)CN2C(=O)c2ocnc2C)n1,720 s
21,Cc1ccc(-c2ncc(C(=O)N(C)C)c(-c3ccncc3)n2)cc1,754 s
22,CC(C)CN(CC(=O)N(Cc1ccco1)CC1CCCO1)C(=O)c1ccc(F)cc1 (stereo not drawn),990 s
23,CC(=O)N1CCN(C(=O)c2ccc(C(=O)O)cc2)CC1,530 s

# The remaining lines, values ahead:
row,RP-LC retention time,Structure (SMILES)
1,686 s,CCOc1ccc(C(=O)N2CCC(c3cc(N)on3)CC2)cc1
2,960 s,Cc1c(C(=O)N2CCSCC2)cnn1-c1ccc(-c2nc(C3CC3)no2)cn1
3,880 s,COc1ccc(NC(=O)C2CCN(S(=O)(=O)c3ccc4c(c3)sc(=O)n4C)CC2)cc1Cl
4,826 s,COc1ccc(CN(C(=O)c2oc3ccccc3c2C)C2CCS(=O)(=O)C2)cc1OC (stereo not drawn)
5,1260 s,Cc1nn(-c2nc(-c3ccc(Cl)cc3)cs2)c(C)c1CC(=O)Nc1ccccc1F
6,985 s,CCc1cccc(NS(=O)(=O)c2ccc(-c3c(C)noc3C)cc2)c1
7,933 s,COc1cccc(NC(=O)Nc2ccc3c(c2)CCN3S(=O)(=O)c2ccccc2)c1
8,1150 s,Cc1ccccc1-c1nc(C2CCN(S(=O)(=O)c3ccccc3F)CC2)no1
9,848 s,O=C(Cn1nc(-c2nc(-c3ccc(Cl)cc3)no2)ccc1=O)N1CCCC1
10,618 s,Cc1cccc(-c2ocnc2C(=O)NC2CCN(C)CC2)c1
11,1260 s,CC1CCCN(S(=O)(=O)c2ccc(C(=O)Nc3nc4c(s3)CCc3ccccc3-4)cc2)C1 (stereo not drawn)
12,642 s,O=C1CC(c2noc(-c3ccccc3)n2)CN1Cc1ccccc1 (stereo not drawn)
13,781 s,COC(=O)c1cc(S(=O)(=O)N2CCCC2C(=O)NCc2ccccc2)cn1C (stereo not drawn)
14,604 s,Cc1ccnc(N2CCCC(C(=O)NCCc3ccc(S(N)(=O)=O)cc3)C2)n1 (stereo not drawn)
15,788 s,COc1cccc(C(=O)NC(c2ccccc2)c2nnc(N3CCCC3)o2)c1 (stereo not drawn)
16,688 s,O=C(Cn1c(=O)c2cccn2c2ccccc21)NC1CC1
17,792 s,O=C(CNC(=O)C1CCCCC1)Nc1ccc(S(=O)(=O)Nc2ccccc2Cl)cc1
18,1030 s,Cc1cccc(C)c1N1CCN(C(=O)c2cccc(F)c2)CC1
19,591 s,Cc1ccc(S(=O)(=O)N2CCc3nc[nH]c3C2)cc1
20,674 s,CCN1CCN(Cc2nc(Cn3ccn4nc(-c5ccc(C)c(C)c5)cc4c3=O)no2)CC1
21,844 s,CCc1nc2onc(C)c2c(=O)n1CC(=O)NCCCc1ccccc1

row,RP-LC retention time,Structure (SMILES)
1,882 s,CCn1nc(C)n2cc(S(=O)(=O)NC(C)c3ccccc3)cc2c1=O (stereo not drawn)
2,870 s,COc1cccc(NC(=O)NCCC2CCN(S(=O)(=O)c3ccccc3)CC2)c1
3,660 s,COc1ccc(S(=O)(=O)NCC2CCN(Cc3cc(C)oc3C)CC2)cc1Cl
4,1050 s,CCc1nn2c(CNS(=O)(=O)c3ccc(Cl)cc3C)c(-c3ccccc3)nc2s1
5,785 s,Cc1cc2nn(CC(=O)Nc3ccc(F)cc3)c(=O)n2c(-c2ccccc2)n1
6,1040 s,Cc1nc(-c2csc(S(=O)(=O)N3CCCC(C(=O)Nc4ccc(Cl)cc4)C3)c2)no1 (stereo not drawn)
7,1100 s,CCc1nn2c(N3CCN(c4cccc(C)n4)CC3)cc(C)nc2c1-c1ccccc1
8,744 s,Cc1oc(C2CCN(C(=O)Nc3ccc(F)cc3F)CC2)nc1C(=O)N1CCCC1
9,926 s,Cn1c(=O)sc2cc(S(=O)(=O)N3CCC(C(=O)Nc4ccc(Cl)cc4)CC3)ccc21
10,747 s,Cc1ccc(S(=O)(=O)N2CCC3(CC2)NCCN=C3NCc2ccccc2F)c(C)c1
11,845 s,COc1ccc(C2CCN(S(C)(=O)=O)CC2)cc1
12,730 s,O=C(CCNc1c(-c2ccc(F)cc2)nc2cnccn12)N1CCCCC1
13,692 s,Cc1c(-c2noc(C(=O)NCCCN3CCCCCC3)n2)oc2ccccc12
14,752 s,CN1CCCn2cc(S(=O)(=O)NCCc3ccc(Cl)cc3)cc2C1=O
15,958 s,CCOC(=O)Cn1nc2c(-c3nc(-c4ccc(Cl)cc4)no3)cccn2c1=O
16,980 s,Cc1noc(-c2ccc(NC(=O)c3cnn(-c4ccccc4)n3)cc2)n1
17,670 s,Cc1cc(=O)n(CC(=O)Nc2ccccc2)c(N2CCCCC2)n1
18,650 s,O=C(NC1CCN(Cc2ccccc2)CC1)C1CCCN(C(=O)c2cccc(Cl)c2)C1 (stereo not drawn)
19,750 s,CCC(=O)N1CCc2cc(N3CC(C(=O)Nc4ccccc4CC)CC3=O)ccc21 (stereo not drawn)
20,1110 s,CC(NC(=O)c1ccco1)c1nc(-c2ccc(N3CCCCCC3)cc2)no1 (stereo not drawn)
